# Source: PMC5586252, “PP2A-B′ holoenzyme substrate recognition, regulation and role in cytokinesis” (Cell Discovery, 2017)
# Entries after “also recorded” stand apart in the source; their conditions may differ. Where no end group is shown, it is not given here.
# Columns and labels:
# [1] = tested on: PP2Ac–Cyk4 interaction in HeLa cells; assay: Co-immunoprecipitation of FLAG-Cyk4 with PP2Ac in synchronized cells; type: cell-based; details: 200 nM for 30 min; HeLa cells with FLAG-Cyk4 and V5-CIP2A, synchronized with monastrol, 0–90 min after its removal
# Protocol: Thirty-six hours after HeLa cells were transfected with FLAG-Cyk4 and V5-CIP2A expression vectors, the transfected cells were arrested at […] with 100 μM monastrol for 14 h, followed by incubation with 200 nM BI-2536 or solvent control for 30 min. Cells were collected at the indicated time points after removal of monastrol to allow cell cycle progression. The interaction between FLAG-Cyk4 and PP2Ac were determined by co-immunoprecipitation using antibody that specifically recognizes FLAG-tag. PP2Ac associated with FLAG-Cyk4 and from cell lysate input were determined by western blot using customer-made antibody against PP2Ac.
# [2] = molecular target: T1, B′γ1 (Homo sapiens, UniProt Q13362); assay: Isothermal titration calorimetry of synthetic peptides; type: binding; details: for interaction with B′γ1 by ITC (in words): phospho-peptides with pS/pT at position 6 and negatively charged residues at positions 2, 7 and 8; for Kd: ITC, 1 mM peptide titrated to 20–50 μM B′γ1, 20 mM HEPES pH 7.5, 200 mM NaCl
# T1 construct: Expression and purification of full-length PP2A Aα, Cα, B′γ1 and PR70 (B″ family); made in house
# Protocol: The binding affinities between B′γ1 and synthetic CIP2A and Cyk4 peptides (GenScript, Piscataway, NJ, USA) were determined by titrating 1 mM of peptides to 20–50 μM B′γ1 in 20 mM HEPES (pH 7.5), 200 mM NaCl using VP-ITC microcalorimeter (MicroCal, Malvern Instrument, Malvern, UK). The data were fitted with Origin 7.0 (MicroCal, Malvern Instrument, Malvern, UK) to calculate the equilibrium association constant.
# T1 sequence (Q13362 whole entry, looked up): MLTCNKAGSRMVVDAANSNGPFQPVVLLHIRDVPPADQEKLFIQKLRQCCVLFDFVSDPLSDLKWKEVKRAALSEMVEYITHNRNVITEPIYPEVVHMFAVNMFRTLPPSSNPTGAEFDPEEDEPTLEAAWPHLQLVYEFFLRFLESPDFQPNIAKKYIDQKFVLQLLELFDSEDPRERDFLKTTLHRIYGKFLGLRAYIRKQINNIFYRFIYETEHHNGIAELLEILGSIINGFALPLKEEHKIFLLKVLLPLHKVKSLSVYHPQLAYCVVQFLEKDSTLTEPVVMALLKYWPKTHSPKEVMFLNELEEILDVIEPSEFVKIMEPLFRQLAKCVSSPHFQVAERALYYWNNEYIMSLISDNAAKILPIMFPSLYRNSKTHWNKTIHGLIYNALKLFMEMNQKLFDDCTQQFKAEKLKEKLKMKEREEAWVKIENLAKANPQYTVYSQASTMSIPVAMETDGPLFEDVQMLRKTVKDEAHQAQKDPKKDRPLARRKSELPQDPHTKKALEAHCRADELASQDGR
Compound,interaction with B′γ1 by ITC (in words) [2],Kd [2] [µM],other results
CC[C@@H]1C(=O)N(C)c2cnc(Nc3ccc(C(=O)NC4CCN(C)CC4)cc3OC)nc2N1C1CCCC1 [BI-2536],–,–,effect on interaction between PP2Ac and Cyk4 (co-IP) [1]: blocked and delayed the interaction between PP2Ac and Cyk4
LEPIRpSEE,no binding; also recorded: no interaction could be detected,–,–
LEPIRpTEE,no binding; also recorded: no interaction could be detected,–,–
LEPVRpSEE,no binding; also recorded: no interaction could be detected,–,–
NKRLSTIDEEGS [Cyk4 peptide S149E],–,1.59,–
NRKLESVAEEHE [CIP2A peptide],–,7.2,–
